Assay results from ChEMBL document CHEMBL6120969, “Distinctive Immune Signatures Driven by Structural Alterations in Desmuramylpeptide NOD2 Agonists” (J Med Chem, 2024).
Active and inactive are the calls of the source. The rule behind the calls is not given here.

Legend:
PBMC [1] = experiment: Immunomodulatory activity in human PBMC cells assessed as increase in IL-8 level at 2 uM incubated for 18 hrs y flow cytometry analysis; type: functional, cell-based
Procedure, shortened: (§1)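 Human donor PBMCs were isolated with Ficoll-Paque, seeded at 1 × 10^6 cells/mL (500 μL) in 48-well plates, and exposed to compounds at 2 μM or to 0.1% DMSO vehicle without LPS for 18 h at 37 °C, 5% CO2. Cytokines in the cell-free supernatants were then quantified on a flow cytometer with the LEGENDplex Human Essential Immune Response Panel, read against the kit's recombinant standard curves. Data came from four independent replicates and were analysed by two-way ANOVA with Tukey's test.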

PBMC [2] = experiment: Immunomodulatory activity in human PBMC cells assessed as increase in LPS-induced IL-10 level at 2 uM incubated for 18 hrs y flow cytometry analysis; type: functional, cell-based
Procedure, shortened: (§2)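 With LPS at 10 ng/mL present, human donor PBMCs (1 × 10^6 cells/mL, 500 μL, 48-well plates) were incubated for 18 h at 37 °C, 5% CO2 with compounds at 2 μM or with 0.1% DMSO. Supernatant cytokines were then determined with a LEGENDplex multiplex panel read by flow cytometry against kit recombinant standards, and four independent replicates were assessed by two-way ANOVA with Tukey's test.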

[3] = Cytotoxicity against human PBMC cells at 10 uM incubated for 4 hrs; type: toxicity, cell-based
Procedure, shortened: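 Human PBMCs alone were exposed to compounds at 10 μM (vehicle 0.1% DMSO) in parallel with a K562 killing assay. They were then stained with Sytox blue dead cell stain and analysed on an Attune NxT flow cytometer with FlowJo. Direct cytotoxicity was read as Sytox blue-positive cells. Duplicates, three independent biological replicates; one-way ANOVA with Dunnett's test.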

PBMC [4] = experiment: Immunomodulatory activity in human PBMC cells assessed as increase in LPS-induced IFN-gamma level at 2 uM incubated for 18 hrs y flow cytometry analysis; type: functional, cell-based
BMDC [5] = experiment: Adjuvant activity in OVA-immunized C57BL/6J mouse BMDC cells co-cultured with mouse CD4+ T cells assessed as reduction in IFN-gamma production at 10 uM incubated for 18 hrs by flow cytometry analysis; type: functional, cell-based
PBMC [6] = experiment: Immunomodulatory activity in human PBMC cells assessed as increase in IL-17A level at 2 uM incubated for 18 hrs y flow cytometry analysis; type: functional, cell-based; procedure, shortened: as §1
PBMC [7] = experiment: Immunomodulatory activity in human PBMC cells assessed as increase in IL-6 level at 2 uM incubated for 18 hrs y flow cytometry analysis; type: functional, cell-based; procedure, shortened: as §1
PBMC [8] = experiment: Immunomodulatory activity in human PBMC cells assessed as increase in TGF-beta1 level at 2 uM incubated for 18 hrs y flow cytometry analysis; type: functional, cell-based; procedure, shortened: as §1
BMDC [9] = experiment: Adjuvant activity in OVA-immunized C57BL/6J mouse BMDC cells assessed as increase in CD4+ T cell activation incubated for 18 hrs; type: functional, cell-based
Procedure, shortened: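 After an 18 h pretreatment with compounds at 10 μM plus 50 μg/mL ovalbumin, bone-marrow-derived dendritic cells from C57BL/6 mice (grown 7 days with GM-CSF) were washed and plated at 1 × 10^4/well with 5 × 10^4 CFSE-labelled OT II CD4+ T cells for 72 h at 37 °C, 5% CO2. Flow cytometry measured activation of live Thy1.2+/CD4+ cells by CFSE dilution and CD25 expression, with duplicates in two independent biological replicates compared by paired t tests.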

PBMC [10] = experiment: Immunomodulatory activity in human PBMC cells assessed as increase in LPS-induced IL-12p70 level at 2 uM incubated for 18 hrs y flow cytometry analysis; type: functional, cell-based
PBMC [11] = experiment: Cytotoxicity against human PBMC cells co-cultured with human K562 cells at 10 uM incubated for 4 hrs; type: functional, cell-based
Procedure, shortened: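 Statistics used one-way ANOVA with Dunnett's test on duplicate wells from three independent biological replicates. In 96-well plates, 4 × 10^5 human PBMCs per well were exposed to compounds at 10 μM for 18 h, with 0.1% DMSO as vehicle, and then to 1 × 10^4 CFSE-stained K562 cells per well (effector:target 40:1) for 4 h at 37 °C, 5% CO2. Killing was determined as the fraction of K562 cells staining for both CFSE and Sytox blue on an Attune NxT flow cytometer.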

[12] = Cytotoxicity against human PBMC cells at 10 uM incubated for 4 hrs in presence of MDP; type: toxicity, cell-based
BMDC [13] = experiment: Adjuvant activity in OVA-immunized C57BL/6J mouse BMDC cells co-cultured with mouse CD4+ T cells assessed as increase in IL-2 level at 10 uM incubated for 18 hrs; type: functional, cell-based
PBMC [14] = experiment: Immunomodulatory activity in human PBMC cells assessed as increase in IL-12p70 level at 2 uM incubated for 18 hrs y flow cytometry analysis; type: functional, cell-based; procedure, shortened: as §1
BMDC [15] = experiment: Adjuvant activity in OVA-immunized C57BL/6J mouse BMDC cells co-cultured with mouse CD8+ T cells assessed as reduction in IFN-gamma production at 10 uM incubated for 18 hrs by flow cytometry analysis; type: functional, cell-based
PBMC [16] = experiment: Immunomodulatory activity in human PBMC cells assessed as increase in LPS-induced TNF-alpha level at 2 uM incubated for 18 hrs y flow cytometry analysis; type: functional, cell-based
PBMC [17] = experiment: Immunomodulatory activity in human PBMC cells assessed as increase in IL-4 level at 2 uM incubated for 18 hrs y flow cytometry analysis; type: functional, cell-based; procedure, shortened: as §1
BMDC [18] = experiment: Adjuvant activity in OVA-immunized C57BL/6J mouse BMDC cells co-cultured with mouse CD4+ T cells assessed as increase in IL-4 production at 10 uM incubated for 18 hrs by flow cytometry analysis; type: functional, cell-based
PBMC [19] = experiment: Immunomodulatory activity in human PBMC cells assessed as increase in IL-10 level at 2 uM incubated for 18 hrs y flow cytometry analysis; type: functional, cell-based; procedure, shortened: as §1
PBMC [20] = experiment: Immunomodulatory activity in human PBMC cells assessed as increase in LPS-induced IP-10 level at 2 uM incubated for 18 hrs y flow cytometry analysis; type: functional, cell-based; procedure, shortened: as §2
BMDC [21] = experiment: Adjuvant activity in OVA-immunized C57BL/6J mouse BMDC cells co-cultured with mouse CD8+ T cells assessed as increase in IL-6 production at 10 uM incubated for 18 hrs by flow cytometry analysis; type: functional, cell-based
PBMC [22] = experiment: Immunomodulatory activity in human PBMC cells assessed as increase in LPS-induced IL-1beta level at 2 uM incubated for 18 hrs y flow cytometry analysis; type: functional, cell-based
PBMC [23] = experiment: Immunomodulatory activity in human PBMC cells assessed as increase in IL-2 level at 2 uM incubated for 18 hrs y flow cytometry analysis; type: functional, cell-based; procedure, shortened: as §1
PBMC [24] = experiment: Immunomodulatory activity in human PBMC cells assessed as increase in IFN-gamma level at 2 uM incubated for 18 hrs y flow cytometry analysis; type: functional, cell-based; procedure, shortened: as §1
PBMC [25] = experiment: Immunomodulatory activity in human PBMC cells assessed as increase in LPS-induced MCP-1 level at 2 uM incubated for 18 hrs y flow cytometry analysis; type: functional, cell-based; procedure, shortened: as §2
PBMC [26] = experiment: Immunomodulatory activity in human PBMC cells assessed as increase in LPS-induced IL-6 level at 2 uM incubated for 18 hrs y flow cytometry analysis; type: functional, cell-based; procedure, shortened: as §2
PBMC [27] = experiment: Immunomodulatory activity in human PBMC cells assessed as increase in MCP-1 level at 2 uM incubated for 18 hrs y flow cytometry analysis; type: functional, cell-based; procedure, shortened: as §1
[28] = Cytotoxicity against human HEK-Blue hNOD2 cells assessed as metabolic activity at 10 uM incubated for 18 hes by MTT assay; type: toxicity, cell-based; conditions: hek-blue hnod2, 10 µM
BMDC [29] = experiment: Adjuvant activity in OVA-immunized C57BL/6J mouse BMDC cells co-cultured with mouse CD4+ T cells assessed as increase in IL-9 level at 10 uM incubated for 18 hrs; type: functional, cell-based
PBMC [30] = experiment: Immunomodulatory activity in human PBMC cells assessed as increase in IP-10 level at 2 uM incubated for 18 hrs y flow cytometry analysis; type: functional, cell-based; procedure, shortened: as §1
PBMC [31] = experiment: Immunomodulatory activity in human PBMC cells assessed as increase in TNF-alpha level at 2 uM incubated for 18 hrs y flow cytometry analysis; type: functional, cell-based; procedure, shortened: as §1
PBMC [32] = experiment: Immunomodulatory activity in human PBMC cells assessed as increase in IL-1beta level at 2 uM incubated for 18 hrs y flow cytometry analysis; type: functional, cell-based; procedure, shortened: as §1
BMDC [33] = experiment: Adjuvant activity in OVA-immunized C57BL/6J mouse BMDC cells co-cultured with mouse CD4+ T cells assessed as increase in IL-6 production at 10 uM incubated for 18 hrs by flow cytometry analysis; type: functional, cell-based
BMDC [34] = experiment: Adjuvant activity in OVA-immunized C57BL/6J mouse BMDC cells co-cultured with mouse CD8+ T cells assessed as increase in IL-9 production at 10 uM incubated for 18 hrs by flow cytometry analysis; type: functional, cell-based

Compound | Activity (PBMC [1]) | Activity (PBMC [2]) | Activity [3] | Activity (PBMC [4]) | Activity (BMDC [5]) | Activity (PBMC [6]) | Activity (PBMC [7]) | Activity (PBMC [8]) | Activity (BMDC [9]) | Activity (PBMC [10]) | Activity (PBMC [11]) | Activity [12] | Activity (BMDC [13]) | Activity (PBMC [14]) | Activity (BMDC [15]) | Activity (PBMC [16]) | Activity (PBMC [17]) | Activity (BMDC [18]) | Activity (PBMC [19]) | Activity (PBMC [20]) | also measured
CCCC(=O)Oc1ccc(/C=C/C(=O)NCC(=O)N[C@H](C(=O)N[C@H](CCC(=O)OCC)C(=O)OCC)C(C)C)cc1OC | Active | Active | Non-toxic | Active | Active | Active | Active | Active | Active | Active | inactive | Non-toxic | Active | Active | Active | Active | Active | Active | Active | Active | Activity (BMDC [21]): Active; Activity (PBMC [22]): Active; Activity (PBMC [23]): Active; Activity (PBMC [24]): Active; Activity (PBMC [25]): Active; Activity (PBMC [26]): Active; Activity (PBMC [27]): Active; Activity [28]: Non-toxic; Activity (BMDC [29]): Active; Activity (PBMC [30]): Active; Activity (PBMC [31]): Active; Activity (PBMC [32]): Active
CCOC(=O)[C@@H](CCC(=O)NC12C[C@H]3C[C@@H](C1)C[C@@H](C2)C3)NC(=O)[C@@H](NC(=O)CNC(=O)/C=C/c1ccc(O)c(OC)c1)C(C)C | Active | Active | Non-toxic | Active | Active | Active | Active | Active | Active | Active | inactive | Non-toxic | Active | Active | Active | Active | Active | Active | Active | Active | Activity (BMDC [33]): Active; Activity (BMDC [34]): Active; Activity (BMDC [21]): Active; Activity (PBMC [22]): Active; Activity (PBMC [23]): Active; Activity (PBMC [24]): Active; Activity (PBMC [25]): Active; Activity (PBMC [26]): Active; Activity (PBMC [27]): Active; Activity [28]: Non-toxic; Activity (BMDC [29]): Active; Activity (PBMC [30]): Active; Activity (PBMC [31]): Active; Activity (PBMC [32]): Active
CC/C=C\C/C=C\C/C=C\C/C=C\C/C=C\CCCC(=O)Oc1ccc(/C=C/C(=O)NCC(=O)N[C@H](C(=O)N[C@H](CCC(=O)OCC)C(=O)OCC)C(C)C)cc1OC | Active | Active | Non-toxic | Active | Active | Active | Active | Active | Active | Active | inactive | Non-toxic | Active | Active | Active | Active | Active | Active | Active | Active | Activity (BMDC [21]): Active; Activity (PBMC [22]): Active; Activity (PBMC [23]): Active; Activity (PBMC [24]): Active; Activity (PBMC [25]): Active; Activity (PBMC [26]): Active; Activity (PBMC [27]): Active; Activity [28]: Non-toxic; Activity (BMDC [29]): Active; Activity (PBMC [30]): Active; Activity (PBMC [31]): Active; Activity (PBMC [32]): Active
